# Laboratory results reported in patent US7750013B2, “N-oxides as prodrugs of piperazine and piperidine derivatives” (Solvay Pharmaceuticals, B.V., priority 2005, dated 2010).
# Columns and labels:
# α1A-adrenergic = α1A-adrenergic (Rattus norvegicus, UniProt P43140); test: In vitro receptor affinity, α1A-adrenergic; type: binding
# Procedure: (§1) The binding data collected in the table below (Example 5: pharmacological test results) were either obtained by CEREP (128, rue Danton, 92500 Rueil-Malmaison, France) or at Solvay Pharmaceuticals B.V. (C. J. van Houtenlaan 36, 1381 CP Weesp, The Netherlands), using well documented standard procedures. The affinities for dopamine-D2 and 5-HT1A receptors for instance, was measured as described by Creese I, Schneider R and Snyder S H, [^3H]-Spiroperidol labels dopamine receptors in rat pituitary and brain, Eur J Pharmacol […], 46: 377-381 and Gozlan H, El Mestikawy S, Pichat L, Glowinsky J and Hamon M, 1983, Identification of presynaptic serotonin autoreceptors using a new ligand ^3H-PAT, Nature 1983, 305: 140-142.
# Dopamine-D1 = Dopamine-D1 (Homo sapiens, UniProt P21728); test: In vitro receptor affinity, Dopamine-D1; type: binding
# Procedure: as §1
# Dopamine-D2 = Dopamine-D2 (Homo sapiens, UniProt P14416); test: In vitro receptor affinity, Dopamine-D2; type: binding
# Procedure: as §1
# α1-adrenergic = test: In vitro receptor affinity, α1-adrenergic; type: binding; settings: rat; radioligand [3H]-prazosin
# Procedure: as §1
# Dopamine-D2 receptor = test: Apomorphine-induced climbing behaviour in mice; type: in vivo
# Procedure: In Vivo Animal Model for Dopamine-D2 Receptor (Ant)Agonistic Activity
# Apomorphine-induced climbing behaviour in mice (Costall B, Naylor R J and Nohria V, Differential actions of typical and atypical agents on two behavioural effects of apomorphine in the mouse, Brit J Pharmacol 1978, 63: 381-382).
# For oral (p.o.) administration: to the desired quantity (0.5-5 mg) of the solid test compound in a glass tube, some glass beads were added and the solid was milled by vortexing for 2 minutes. After addition of 1 ml of a solution of 1% methylcellulose in water and 2% (v/v) of Poloxamer 188 (Lutrol F68), the compound was suspended by vortexing for 10 minutes. The pH was adjusted to 7. Remaining particles in the suspension were further suspended by using an ultrasonic bath.
# For intravenous (i.v.) administration: compounds were dissolved in physiological saline (0.9% NaCl) and the pH was adjusted to 7.
# β2-adrenergic = β2-adrenergic (Homo sapiens, UniProt P07550); test: In vitro receptor affinity, β2-adrenergic; type: binding
# Procedure: as §1
# 5-HT1D = test: In vitro receptor affinity, 5-HT1D; type: binding; settings: bovine; radioligand [3H]-serotonin
# Procedure: as §1
# Dopamine-D5 = Dopamine-D5 (Homo sapiens, UniProt P21918); test: In vitro receptor affinity, Dopamine-D5; type: binding
# Procedure: as §1
# [1] = Plasma levels of SLV308 and its N-oxide after oral dosing; type: in vivo; settings: after oral administration; rats
# Description: These findings were corroborated by measurements of plasma levels of SLV308 and its N-oxide after oral dosing with SLV308 and the N-oxide.
# 5-HT1B = 5-HT1B (Rattus norvegicus, UniProt P28564); test: In vitro receptor affinity, 5-HT1B; type: binding
# Procedure: as §1
# α2C-adrenergic = α2C-adrenergic (Homo sapiens, UniProt P18825); test: In vitro receptor affinity, α2C-adrenergic; type: binding
# Procedure: as §1
# Dopamine-D2S = Dopamine-D2S (Homo sapiens, UniProt P14416); test: In vitro receptor affinity, Dopamine-D2S; type: binding
# Procedure: as §1
# α1B-adrenergic = α1B-adrenergic (Rattus norvegicus, UniProt P15823); test: In vitro receptor affinity, α1B-adrenergic; type: binding
# Procedure: as §1
# Dopamine-D4 = Dopamine-D4 (Homo sapiens, UniProt P21917); test: In vitro receptor affinity, Dopamine-D4; type: binding
# Procedure: as §1
# Chain of Dopamine-D4 (P21917 whole entry): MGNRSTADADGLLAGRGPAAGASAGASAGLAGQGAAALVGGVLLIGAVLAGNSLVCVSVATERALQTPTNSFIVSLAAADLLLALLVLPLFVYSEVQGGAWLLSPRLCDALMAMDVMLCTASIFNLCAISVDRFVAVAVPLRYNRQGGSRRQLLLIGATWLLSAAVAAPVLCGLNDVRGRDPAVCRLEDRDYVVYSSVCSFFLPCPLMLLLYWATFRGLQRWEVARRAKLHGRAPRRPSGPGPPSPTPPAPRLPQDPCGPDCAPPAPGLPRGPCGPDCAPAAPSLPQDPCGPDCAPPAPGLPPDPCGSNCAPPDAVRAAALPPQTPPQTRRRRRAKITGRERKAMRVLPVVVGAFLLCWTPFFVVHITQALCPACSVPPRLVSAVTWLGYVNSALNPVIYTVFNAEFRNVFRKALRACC
# Chain of Dopamine-D2 (P14416 whole entry): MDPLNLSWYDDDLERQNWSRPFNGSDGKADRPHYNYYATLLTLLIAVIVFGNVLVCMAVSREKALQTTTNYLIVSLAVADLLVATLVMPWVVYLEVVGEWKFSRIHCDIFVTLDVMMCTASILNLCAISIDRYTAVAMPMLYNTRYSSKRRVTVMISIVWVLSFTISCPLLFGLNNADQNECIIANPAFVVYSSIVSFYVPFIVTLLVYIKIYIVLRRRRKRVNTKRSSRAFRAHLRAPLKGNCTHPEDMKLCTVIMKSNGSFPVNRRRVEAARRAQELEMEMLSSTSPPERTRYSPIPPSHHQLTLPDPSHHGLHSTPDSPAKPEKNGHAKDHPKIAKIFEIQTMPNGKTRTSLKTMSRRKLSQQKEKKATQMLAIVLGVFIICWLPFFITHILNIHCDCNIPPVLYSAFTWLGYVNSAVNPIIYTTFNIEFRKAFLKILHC
# Chain of α1B-adrenergic (P15823 whole entry): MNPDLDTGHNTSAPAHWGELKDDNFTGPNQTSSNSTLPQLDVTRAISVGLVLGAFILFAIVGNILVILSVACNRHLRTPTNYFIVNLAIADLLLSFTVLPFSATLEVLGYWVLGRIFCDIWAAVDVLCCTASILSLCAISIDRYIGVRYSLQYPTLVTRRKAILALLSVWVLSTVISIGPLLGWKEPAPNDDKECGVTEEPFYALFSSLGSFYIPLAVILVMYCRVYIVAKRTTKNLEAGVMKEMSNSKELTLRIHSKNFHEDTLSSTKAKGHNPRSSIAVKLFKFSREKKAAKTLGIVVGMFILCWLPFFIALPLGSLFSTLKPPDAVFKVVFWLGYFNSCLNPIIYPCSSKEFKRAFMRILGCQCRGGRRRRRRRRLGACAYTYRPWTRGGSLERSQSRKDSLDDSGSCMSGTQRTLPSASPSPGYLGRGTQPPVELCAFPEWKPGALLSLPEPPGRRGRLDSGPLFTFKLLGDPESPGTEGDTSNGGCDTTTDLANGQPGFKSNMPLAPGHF
# Chain of α1A-adrenergic (P43140 whole entry): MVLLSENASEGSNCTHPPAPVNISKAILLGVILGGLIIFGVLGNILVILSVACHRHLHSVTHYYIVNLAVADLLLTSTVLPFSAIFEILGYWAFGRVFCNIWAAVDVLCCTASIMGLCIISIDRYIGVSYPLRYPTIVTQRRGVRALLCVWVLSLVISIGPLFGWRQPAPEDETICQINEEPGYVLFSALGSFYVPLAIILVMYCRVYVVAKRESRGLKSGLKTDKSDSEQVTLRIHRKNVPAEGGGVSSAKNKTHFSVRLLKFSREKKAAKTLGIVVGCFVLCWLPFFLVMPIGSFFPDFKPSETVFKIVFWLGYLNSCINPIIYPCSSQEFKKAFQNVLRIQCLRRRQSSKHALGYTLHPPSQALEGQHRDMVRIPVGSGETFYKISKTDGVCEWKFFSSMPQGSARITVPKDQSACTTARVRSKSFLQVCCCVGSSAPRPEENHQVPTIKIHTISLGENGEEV
# Chain of 5-HT1B (P28564 whole entry): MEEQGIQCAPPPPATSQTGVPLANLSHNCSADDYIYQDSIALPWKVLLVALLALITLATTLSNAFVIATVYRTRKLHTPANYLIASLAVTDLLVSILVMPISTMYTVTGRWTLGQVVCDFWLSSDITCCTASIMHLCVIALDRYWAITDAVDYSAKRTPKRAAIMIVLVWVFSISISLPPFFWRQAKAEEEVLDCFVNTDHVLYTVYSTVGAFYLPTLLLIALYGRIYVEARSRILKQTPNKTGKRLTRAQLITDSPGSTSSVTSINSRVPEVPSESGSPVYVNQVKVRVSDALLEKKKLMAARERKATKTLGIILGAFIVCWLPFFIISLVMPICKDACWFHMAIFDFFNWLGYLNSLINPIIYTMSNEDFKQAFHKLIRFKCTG
# Chain of Dopamine-D2S (P14416 1-414 isoform P14416-2): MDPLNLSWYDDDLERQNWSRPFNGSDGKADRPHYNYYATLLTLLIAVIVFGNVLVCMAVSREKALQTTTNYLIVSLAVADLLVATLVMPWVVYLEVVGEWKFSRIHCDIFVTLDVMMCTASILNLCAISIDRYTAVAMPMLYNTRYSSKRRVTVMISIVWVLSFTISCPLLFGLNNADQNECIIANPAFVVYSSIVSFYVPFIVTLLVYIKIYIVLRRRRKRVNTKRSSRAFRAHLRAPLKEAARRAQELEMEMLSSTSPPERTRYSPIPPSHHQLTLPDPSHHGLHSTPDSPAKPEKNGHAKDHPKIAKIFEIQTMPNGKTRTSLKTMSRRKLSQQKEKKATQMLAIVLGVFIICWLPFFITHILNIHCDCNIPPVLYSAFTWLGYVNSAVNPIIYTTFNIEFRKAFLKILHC
# Chain of α2C-adrenergic (P18825 whole entry): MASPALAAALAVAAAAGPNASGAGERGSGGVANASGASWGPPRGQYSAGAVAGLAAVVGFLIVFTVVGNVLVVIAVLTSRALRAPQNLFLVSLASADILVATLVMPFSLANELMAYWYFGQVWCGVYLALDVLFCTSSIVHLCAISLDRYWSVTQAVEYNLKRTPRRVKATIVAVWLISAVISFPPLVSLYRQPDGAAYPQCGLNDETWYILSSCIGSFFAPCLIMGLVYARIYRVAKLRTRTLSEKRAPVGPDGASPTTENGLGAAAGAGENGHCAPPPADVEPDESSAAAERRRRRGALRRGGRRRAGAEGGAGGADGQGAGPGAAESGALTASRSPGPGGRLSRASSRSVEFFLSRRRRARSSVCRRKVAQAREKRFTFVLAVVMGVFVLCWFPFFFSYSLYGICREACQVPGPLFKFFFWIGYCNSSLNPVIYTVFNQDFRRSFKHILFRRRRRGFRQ
# Chain of Dopamine-D1 (P21728 whole entry): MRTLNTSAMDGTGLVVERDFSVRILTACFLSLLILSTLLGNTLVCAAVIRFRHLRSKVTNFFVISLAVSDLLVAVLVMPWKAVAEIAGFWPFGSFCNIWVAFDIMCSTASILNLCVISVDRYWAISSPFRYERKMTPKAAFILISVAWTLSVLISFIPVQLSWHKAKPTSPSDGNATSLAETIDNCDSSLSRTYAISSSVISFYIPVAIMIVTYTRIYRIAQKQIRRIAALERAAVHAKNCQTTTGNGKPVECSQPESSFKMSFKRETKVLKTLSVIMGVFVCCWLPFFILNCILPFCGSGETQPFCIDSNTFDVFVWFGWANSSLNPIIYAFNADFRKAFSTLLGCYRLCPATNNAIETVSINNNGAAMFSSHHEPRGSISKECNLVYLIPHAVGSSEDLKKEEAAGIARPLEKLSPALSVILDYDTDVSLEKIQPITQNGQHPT
# Chain of β2-adrenergic (P07550 whole entry): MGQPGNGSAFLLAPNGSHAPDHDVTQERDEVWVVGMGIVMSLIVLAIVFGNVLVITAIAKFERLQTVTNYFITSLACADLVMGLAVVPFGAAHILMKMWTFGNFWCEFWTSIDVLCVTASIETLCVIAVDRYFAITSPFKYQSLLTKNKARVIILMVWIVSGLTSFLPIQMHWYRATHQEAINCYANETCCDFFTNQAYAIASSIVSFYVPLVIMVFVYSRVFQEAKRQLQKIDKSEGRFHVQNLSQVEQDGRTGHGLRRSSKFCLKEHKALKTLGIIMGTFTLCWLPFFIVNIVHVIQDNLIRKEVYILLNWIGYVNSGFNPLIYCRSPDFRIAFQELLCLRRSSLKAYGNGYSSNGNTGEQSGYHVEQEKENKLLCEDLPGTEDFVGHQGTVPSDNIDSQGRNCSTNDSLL
# Chain of Dopamine-D5 (P21918 whole entry): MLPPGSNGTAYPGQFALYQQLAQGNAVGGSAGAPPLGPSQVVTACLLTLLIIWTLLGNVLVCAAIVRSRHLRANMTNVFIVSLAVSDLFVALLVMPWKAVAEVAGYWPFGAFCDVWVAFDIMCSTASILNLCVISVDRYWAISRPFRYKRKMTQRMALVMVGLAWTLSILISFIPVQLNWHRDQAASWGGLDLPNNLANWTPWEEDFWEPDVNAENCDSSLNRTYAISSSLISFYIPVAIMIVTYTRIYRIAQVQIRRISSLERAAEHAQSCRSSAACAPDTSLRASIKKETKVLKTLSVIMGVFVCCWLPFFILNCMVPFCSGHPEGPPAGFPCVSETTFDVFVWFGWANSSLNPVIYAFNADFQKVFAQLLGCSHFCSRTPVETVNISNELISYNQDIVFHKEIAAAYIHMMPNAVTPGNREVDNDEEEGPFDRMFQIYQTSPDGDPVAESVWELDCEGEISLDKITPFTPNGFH
compound,measurement,setting,value
"C[N+]1([O-])CCN(c2cccc3[nH]c(=O)oc23)CC1 [N-oxide of SLV308, N-Oxide of SLV308]",Ki,α1A-adrenergic,630 nM
same,Ki,Dopamine-D1,> 1000 nM
same,Ki,Dopamine-D2,> 1000 nM
same,Factor by which dopamine-D2 receptor affinities differ (N-oxide vs SLV308),Dopamine-D2; potency ratio,≥ 100
same,Ki,α1-adrenergic,> 1000 nM
same,In vivo activity compared with the parent compound (in words),Dopamine-D2 receptor; administered intravenously,approximately one tenth of the activity of the parent compound
same,Antagonism of apomorphine induced climbing behavior after intravenous dosing: ED50,"Dopamine-D2 receptor; mice, i.v.",0.90 mg/kg
same,Antagonism of apomorphine induced climbing behavior after oral dosing: ED50,"Dopamine-D2 receptor; mice, oral",0.79 mg/kg
same,In vivo activity compared with the parent compound (in words),Dopamine-D2 receptor; oral administration,equipotent with SLV308
same,Ki,β2-adrenergic,> 1000 nM
same,Ki,5-HT1D,> 1000 nM
same,melting point,,242 to 243 °C
same,Ki,Dopamine-D5,> 1000 nM
same,Plasma levels of the N-oxide relative to SLV308 (in words),[1],approximately equal
same,Ki,5-HT1B,> 1000 nM
same,Ki,α2C-adrenergic,400 nM
same,Ki,Dopamine-D2S,> 1000 nM
same,Ki,α1B-adrenergic,400 nM
same,Ki,Dopamine-D4,130 nM
same,Factor by which affinities for dopamine-D4 receptors differ (N-oxide vs SLV308),Dopamine-D4; potency ratio,10
